Assay results taken from ChEMBL document CHEMBL5579867, “Ligand-Based Pharmacophoric Design and Anti-inflammatory Evaluation of Triazole Linked Semisynthetic Labdane Conjugates” (ACS Med Chem Lett, 2024).
pIC50: −log10 of the molar value. Activity calls are given as the source filed them. The rule behind the calls is not given here.

What was measured:
RAW264.7 [1] = test: Antiinflammatory activity in LPS-induced mouse RAW264.7 cells assessed as increase in IL-10 production pretreated for 1 hr followed by LPS stimulation and measured after 24 hrs by ELISA; format: functional, cell-based; conditions: dose 1-10 µM, time 25.0 hrs
RAW264.7 [2] = test: Antiinflammatory activity in LPS-induced mouse RAW264.7 cells assessed as inhibition of NO production at 1 to 20 uM pretreated for 1 hr followed by LPS stimulation and measured after 23 hrs by Griess method; format: functional, cell-based; conditions: dose 1-20 µM, time 24.0 hrs
RAW264.7 [3] = test: Effect on NF-kappaB p65 protein expression in LPS-induced mouse RAW264.7 cells at 10 to 20 uM pretreated for 1 hr followed by LPS stimulation and measured after 24 hrs by Western blot analysis; format: functional, cell-based; conditions: dose 10-20 µM, time 25.0 hrs
RAW264.7 [4] = test: Cytotoxicity against mouse RAW264.7 cells assessed as reduction in cell viability at 1 to 20 uM incubated for 24 hrs by MTT assay; format: toxicity, cell-based; conditions: raw264.7, 24 h, dose 1-20 µM
RAW264.7 [5] = test: Antiinflammatory activity in LPS-induced mouse RAW264.7 cells assessed as inhibition of TNF-alpha production pretreated for 1 hr followed by LPS stimulation and measured after 24 hrs by ELISA; format: functional, cell-based; conditions: dose 1-10 µM, time 25.0 hrs
RAW264.7 [6] = test: Antiinflammatory activity in LPS-induced mouse RAW264.7 cells assessed as inhibition of NO production pretreated for 1 hr followed by LPS stimulation and measured after 23 hrs by Griess method; format: functional, cell-based
RAW264.7 [7] = test: Antiinflammatory activity in LPS-induced mouse RAW264.7 cells assessed as inhibition of TNF-alpha production at 20 uM pretreated for 1 hr followed by LPS stimulation and measured after 24 hrs by ELISA; format: functional, cell-based; conditions: time 25.0 hrs
RAW264.7 [8] = test: Inhibition of LPS-induced NF-kappaB activation in mouse RAW264.7 cells assessed as inhibition of p65 phosphorylation pretreated for 1 hr followed by LPS stimulation and measured after 24 hrs by Western blot analysis; format: cell-based; conditions: dose 10-20 µM, time 25.0 hrs
RAW264.7 [9] = test: Inhibition of LPS-induced NF-kappaB activation in mouse RAW264.7 cells assessed as reduction in nuclear translocation pretreated for 1 hr followed by LPS stimulation and measured after 24 hrs by immunofluorescence staining based fluorescence microscopic analysis; format: cell-based; conditions: dose 10-20 µM, time 25.0 hrs
RAW264.7 [10] = test: Antiinflammatory activity in LPS-induced mouse RAW264.7 cells assessed as inhibition of IL-6 production pretreated for 1 hr followed by LPS stimulation and measured after 24 hrs by ELISA; format: functional, cell-based; conditions: dose 1-10 µM, time 25.0 hrs
RAW264.7 [11] = test: Antiinflammatory activity in LPS-induced mouse RAW264.7 cells assessed as reduction in COX-2 protein expression pretreated for 1 hr followed by LPS stimulation and measured after 24 hrs by Western blot analysis; format: functional, cell-based; conditions: dose 10-20 µM, time 25.0 hrs
RAW264.7 [12] = test: Antiinflammatory activity in LPS-induced mouse RAW264.7 cells assessed as inhibition of IL-6 production at 20 uM pretreated for 1 hr followed by LPS stimulation and measured after 24 hrs by ELISA; format: functional, cell-based; conditions: time 25.0 hrs
RAW264.7 [13] = test: Antiinflammatory activity in LPS-induced mouse RAW264.7 cells assessed as reduction in iNOS protein expression pretreated for 1 hr followed by LPS stimulation and measured after 24 hrs by Western blot analysis; format: functional, cell-based; conditions: dose 10-20 µM, time 25.0 hrs
[14] = target: T1, Polyunsaturated fatty acid lipoxygenase ALOX15 (Homo sapiens, UniProt P16050); test: Inhibition of LOX-15 (unknown origin)
T1 sequence (P16050 whole entry): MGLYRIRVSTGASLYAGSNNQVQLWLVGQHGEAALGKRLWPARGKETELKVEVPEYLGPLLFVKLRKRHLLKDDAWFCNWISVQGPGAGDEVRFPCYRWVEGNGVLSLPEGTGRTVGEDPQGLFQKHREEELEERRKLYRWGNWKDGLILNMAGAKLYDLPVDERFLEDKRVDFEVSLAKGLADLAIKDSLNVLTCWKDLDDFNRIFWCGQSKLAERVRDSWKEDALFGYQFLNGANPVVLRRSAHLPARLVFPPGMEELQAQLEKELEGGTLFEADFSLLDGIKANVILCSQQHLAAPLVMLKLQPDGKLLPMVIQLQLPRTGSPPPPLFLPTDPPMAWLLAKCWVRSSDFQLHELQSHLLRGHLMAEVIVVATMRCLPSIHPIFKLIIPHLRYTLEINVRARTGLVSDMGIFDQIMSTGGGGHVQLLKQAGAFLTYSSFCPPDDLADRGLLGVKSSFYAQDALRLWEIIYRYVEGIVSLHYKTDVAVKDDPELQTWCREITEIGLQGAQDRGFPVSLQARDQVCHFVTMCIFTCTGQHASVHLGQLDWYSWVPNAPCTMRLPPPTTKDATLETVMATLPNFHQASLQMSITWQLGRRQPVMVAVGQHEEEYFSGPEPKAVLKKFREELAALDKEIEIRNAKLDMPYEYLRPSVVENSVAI

[15] = Inhibition of TNF-alpha induced ICAM-1 protein expression in HUVEC cells; format: functional, cell-based; conditions: Homo sapiens

Compound: C=C1CC[C@H]2C(C)(C)CCC[C@]2(C)[C@H]1C/C=C(/C=O)CC(=O)OCc1cn(CCN2C(=O)C(=O)c3ccccc32)nn1
- Activity (RAW264.7 [1]): Dose-Dependent Effect
- Activity (RAW264.7 [2]): Active
- Activity (RAW264.7 [3]): inactive
- Activity (RAW264.7 [4]): Non-Toxic
- Activity (RAW264.7 [5]): Dose-Dependent Effect
- pIC50 (RAW264.7 [6]): 5.50
- Activity (RAW264.7 [7]): Active
- inhibition (RAW264.7 [8]): Dose-Dependent Effect
- inhibition (RAW264.7 [9]): Dose-Dependent Effect
- Activity (RAW264.7 [10]): Dose-Dependent Effect
- Activity (RAW264.7 [11]): Dose-Dependent Effect
- Activity (RAW264.7 [12]): Active
- Activity (RAW264.7 [13]): Dose-Dependent Effect

Compound: CN(C)c1ccc(/C=C/C(=O)c2cccc(-n3cc(CN4C(=O)C(=O)c5ccccc54)nn3)c2)cc1
- pIC50 [14]: 5.80

Compound: COc1ccc(N/N=C2\C(=O)N(CCCn3cncn3)c3ccc(Br)cc32)cc1
- pIC50 [15]: 4.70
